# Source: patent publication US11668702B2, “Regulation of fungal fruiting body development” (The Chinese University of Hong Kong, priority 2017, dated 2023)
# “Also recorded” adds a separate entry of the source.
# Columns and labels:
# [1] = tested on: C. cinerea; test: C. cinerea fruiting body development, solution spread on YMG agar surface before inoculation (Example 5); format: cell-based, Coprinopsis cinerea
# Protocol: FIG. 9: Effect on C. cinerea fruiting body development by GSK3 inhibitor-LiCl at different concentration. Water or LiCl solution was spread on the surface of YMG agar, before inoculation. After 6-days all dark incubation in 37° C., the plates were transferred to 25° C. with 12-hours light and 12-hours dark cycle (light/dark cycle) for 5-days incubation. […] Initials and hyphal knots formed on the plates treated with 0.75 g/L and 1.5 g/L LiCl respectively.
# FIG. 10: Effect on C. cinerea fruiting body development by GSK3 inhibitor-CHIR-99021 HCl at different concentration. Water or CHIR-99021 HCl solution was spread on the surface of YMG agar, before inoculation. After the mycelium reached the edge of plates, the plates were transferred to 25° C. with light/dark cycle for 6-days incubation.
# FIG. 11: Effect on C. cinerea fruiting body development by GSK3 activator-Cisplatin at different concentration. Water or Cisplatin solution was spread on the surface of YMG agar, before inoculation. After the mycelium reached the edge of plates, the plates were transferred to 25° C. with light/dark cycle. […] Young fruiting body developed on the control YMG plates treated with water.
# Two GSK3 inhibitors (LiCl and CHIR-99021 HCl) and one GSK3 activator (Cisplatin) were tested in Coprinopsis cinerea, and one GSK3 inhibitor (LiCl) was tested in Pleurotus djamor (commonly known as the pink oyster mushroom). Belonging to the same order Agaricales, these two tested mushroom species are of two different families, Psathyrellaceae and Pleurotaceae, respectively.
# Water or LiCl solution was spread on the surface of YMG agar before inoculation of C. cinerea. After 6-days all dark incubation in 37° C., the plates were transferred to 25° C. with 12-hours light and 12-hours dark cycle (light/dark cycle) for 5-days incubation. […] Initials and hyphal knots were formed on the plates treated with 0.75 g/L and 1.5 g/L LiCl respectively.
# Water or CHIR-99021 HCl solution was spread on the surface of YMG agar before inoculation of C. cinerea. After the mycelium reached the edge of plates, the plates were transferred to 25° C. with light/dark cycle for 6-days incubation.
# Water or Cisplatin solution was spread on the surface of YMG agar before C. cinerea inoculation. After the mycelium reached the edge of plates, the plates were transferred to 25° C. with light/dark cycle. […] Young fruiting body developed on the control YMG plates treated with water.
# [2] = tested on: C. cinerea; test: C. cinerea on YMG agar treated with CHIR-99021 HCl (Example 2); format: cell-based, Coprinopsis cinerea
# Protocol: Another GSK-3 inhibitor was used to confirm inhibition of LiCl on GSK-3. C. cinerea was cultivated on YMG agar and treated with water for control group and 1 uM, 100 uM and 500 uM of CHIR-99021 HCl for experimental group.
# [3] = tested on: C. cinerea; test: LiCl added at different developmental stages of C. cinerea; format: cell-based, Coprinopsis cinerea
# Protocol: FIG. 4: The development of C. cinerea treated with 0.1 ml of 3 g/L LiCl at different stage.
# FIG. 5: Life cycle of the mushroom-forming fungi, and the sensitive windows to the GSK-3 inhibitors (stages in grey). […] These stages are sensitive windows.
# The effect of LiCl at different developmental stages of C. cinerea were tested. 0.1 ml of 3 g/L LiCl were added to the agar plate.
# [4] = tested on: C. cinerea; test: Mycelial growth rate of LiCl treated C. cinerea on YMG agar; format: cell-based, Coprinopsis cinerea
# Protocol: FIG. 3: Mycelial growth of C. cinerea with different doses of LiCl, biological triplicates were used for mean calculation.
# The mycelial growth rate was measured for the LiCl treated C. cinerea. Biological triplicates were cultivated on YMG agar plates at 37° C. in darkness, treated with different doses of LiCl. The mycelium growth was recorded for 4 days.
# [5] = tested on: GSK-3 and its target genes; test: Quantitative real-time PCR of GSK-3 and its target genes under LiCl treatment; format: cell-based, Coprinopsis cinerea
# Protocol: FIG. 6: The gene expression levels are indicated by the abundance of segments on the cDNA, by real-time PCR. […] Glycogen synthase (CC1G_01973); GSK-3 protein kinase (CC1G_03802); eukaryotic translation initiation factor 1 (CC1G_03881); Uncharacterized protein with Ricin B-type lectin domain (CC1G_05298); Translation initiation factor eIF2 gamma subunit (CC1G_09429).
# The expression levels of targets genes of GSK-3 were measured to explore the mechanism of LiCl. To characterize the gene expression profile changes, quantitative real-time PCR analysis was performed. the kinase and its substrates by Orthologue searching were selected. A total of 83 GSK-3 substrates reported in human and mouse were mapped to the C. cinerea genome, and 52 orthologues were identified. Among them, CC1G_01973, CC1G_03881, and CC1G_09429 were selected for real-time PCR analysis. Samples treated by different doses of LiCl were frozen and homogenized in liquid nitrogen to extract total RNAs. […] Decreased eIF1 gene expression supports that LiCl block the fruiting through inhibiting GSK-3 activity in initiating the translation of key protein. Binding of eIF1 to 40S ribosome is key to maintain an open conformation on 40S ribosomal subunit to initiate translation (Passmore et al. 2007). Low level of eIF1 was also found to lower mRNA translation in Saccharomyces cerevisiae (You et al. 2010).
# [6] = cited from earlier work
# [7] = tested on: Pleurotus djamor; test: Pleurotus djamor fruiting body development, LiCl in YMG agar; format: cell-based; settings: 2 g/L LiCl in YMG agar; 10 days dark at 27° C., 10 days light/dark cycle at 25° C.
# Protocol: FIG. 12: Effect on Pleurotus djamor fruiting body development by GSK3 inhibitor-LiCl at different concentration. LiCl was added to YMG agar medium before autoclave. After 10-days all dark incubation in 27° C., the plates were transferred to 25° C. with 12-hours light and 12-hours dark cycle (light/dark cycle) for 10-days incubation. Mature fruiting bodies developed on the control plates.
# LiCl was added to YMG agar medium before autoclave. After 10-days all dark incubation in 27° C., the plates were transferred to 25° C. with 12-hours light and 12-hours dark cycle (light/dark cycle) for 10-days incubation. Mature fruiting bodies developed on the control plates.
# [8] = tested on: C. cinerea; test: LiCl clearance and fruiting body formation (Example 3); format: cell-based, Coprinopsis cinerea; settings: washing mycelium and substrate with ddH2O or transfer onto clean substrate
# Text: The LiCl inhibition of C. cinerea mycelium can be relieved by removing LiCl or diluting the concentration of LiCl, for example, by washing the mycelium and substrate with ddH2O, or by transferring the mycelium onto a clean substrate.
# [9] = tested on: Pleurotus djamor; test: Self-healing ability and stability of mycelium blocks; settings: 2 g/L LiCl in substrate; following 30 days
# Protocol: FIG. 8: Comparison of the self-healing ability between the mycelium blocks treated by heating and LiCl. The two group of mycelium blocks (e.g., Pleurotus djamor blocks) were broken in the middle. In each group, 3 blocks were spread with the solution of YMG broth and the other 3 blocks with ddH2O on the broken sites. The two parts of one block were incubated together for 3 days.
# The self-healing ability and stability of the living material is tested by comparison of the self-healing ability between the mycelium blocks treated by heating and LiCl. To prepare the demo mycelium blocks, water (as in group “Heat”) or 2 g/L LiCl water solution (as in group “Lithium”), sawdust, wheat bran and calcium carbonate were mixed as substrate and autoclaved the substrate. Then the Pleurotus djamor was inoculated to the substrate, and incubated under 27° C. continuous dark for 7 days. Then 30 g of the mixture of mycelium and substrate were transferred into molds of block, with same volume and pressure. The blocks were incubated under 27° C. continuous dark for another 7 days. Then the blocks of “Heat” group were dried by oven, and the block of “Lithium” group were dried by dehumidifier, to the same mass of the “Heat” group.
# The two group of mycelium blocks were broken in the middle. In each group, 3 blocks were spread with the solution of YMG broth and the other 3 blocks with ddH2O on the broken sites. […]
# [10] = tested on: C. cinerea; test: Fruiting body development of C. cinerea on YMG agar with LiCl in or under the agar
# [11] = during spa use (PubChem Compound Database); cited from earlier work
# [12] = tested on: Pleurotus eryngii; settings: cited from earlier work
# [13] = different doses of LiCl, real-time PCR
smiles,measurement,setting,value
"Cc1cnc(-c2cnc(NCCNc3ccc(C#N)cn3)nc2-c2ccc(Cl)cc2Cl)[nH]1.Cl.Cl.Cl [CHIR-99021 HCl, 6-[[2-[[4-(2,4-Dichlorophenyl)-5-(5-methyl-1H-imidazol-2-yl)-2-pyrimidinyl]amino]ethyl]amino]-3-pyridinecarbonitrile trihydrochloride]",Fruiting body development stage reached,"[1]; 1 μM CHIR-99021 HCl, 6 days light/dark cycle at 25° C.",Young fruiting bodies developed
same,Fruiting body development stage reached,"[1]; 100 μM CHIR-99021 HCl, 6 days light/dark cycle at 25° C.",developed primordium
same,Fruiting body development stage reached,"[1]; 500 μM CHIR-99021 HCl, 6 days light/dark cycle at 25° C., trihydrochloride",remained arrested in mycelium stage
same,Fruiting body development,[2]; 1 uM CHIR-99021 HCl,developed initials
same,Fruiting body development,[2]; 100 uM CHIR-99021 HCl,developed initials
same,Fruiting body formation,[2]; concentration not given,inhibits fruiting body formation
same,Fruiting body development,[2]; higher CHIR-99021 HCl concentration (500 uM group),inhibited fruiting
"N.N.[Cl][Pt][Cl] [Cisplatin, cis-diamminedichloridoplatinum(II)]",Fruiting body development stage reached,"[1]; 1 ml saturated Cisplatin, 6 days light/dark cycle at 25° C.",had fruiting body and began autolysis
"[Cl-].[Li+] [LiCl, Lithium chloride]",Further development after LiCl addition,[3]; 0.1 ml of 3 g/L LiCl added at initial,led to the arrest of their development; also recorded: led to inhibition on further development; also recorded: resulted in arrestment in fruiting body development
same,Further development after LiCl addition,[3]; 0.1 ml of 3 g/L LiCl added at stage-1 primordium,led to the arrest of their development; also recorded: led to inhibition on further development; also recorded: resulted in arrestment in fruiting body development
same,Further development after LiCl addition,[3]; 0.1 ml of 3 g/L LiCl added at stage-2 primordium,could continue to develop into fruiting bodies; also recorded: cannot inhibit the fruiting body development
same,Further development after LiCl addition,[3]; 0.1 ml of 3 g/L LiCl added at young fruiting body,could continue to develop into fruiting bodies; also recorded: cannot inhibit the fruiting body development
same,Further development after LiCl addition,[3]; LiCl intervention at hyphal knot,resulted in arrestment in fruiting body development
same,Further development after LiCl addition,[3]; LiCl intervention at mycelium,resulted in arrestment in fruiting body development
same,Effect on Mycelium growth,[4]; 1.5 g/L LiCl in agar,higher than control; also recorded: Acceleration
same,Effect on Mycelium growth,[4]; 3 g/L LiCl in agar,higher than control; also recorded: acceleration in mycelium growth rate
same,Effect on Mycelium growth,[4]; 6 g/L LiCl in agar,inhibit the growth of mycelium; also recorded: Retarded
same,GSK-3 gene expression,[5]; 3 g/L LiCl mixed in the substrate,general decrease in GSK-3 gene expression
same,Expression level of GSK-3 gene and selected GSK-3 target genes,[5]; [13],could regulate the expression; also recorded: change the expression level
same,eIF1 gene expression,[5]; [13],decreased with increase of LiCl concentration
same,Solubility,[6],"soluble in water, ethanol, acetone, pyridine and nitrobenzene"
same,Fruiting body development,[7],failed to develop fruiting body
same,Fruiting body development stage reached,"[1]; 0.375 g/L LiCl, 5 days light/dark cycle at 25° C.",Primordium were formed
same,Fruiting body development stage reached,"[1]; 0.75 g/L LiCl, 5 days light/dark cycle at 25° C.",Initials
same,Fruiting body development stage reached,"[1]; 1.5 g/L LiCl, 5 days light/dark cycle at 25° C.",hyphal knots
same,Fruiting body development stage reached,"[1]; 3 g/L LiCl, 5 days light/dark cycle at 25° C.",arrested in mycelium stage
same,Mycelium growth on plate,[1]; 6 g/L LiCl,stopped before reaching the edge of plates
same,Fruiting body development stage reached,"[1]; 6 g/L LiCl, 5 days light/dark cycle at 25° C.",arrested in mycelium stage
same,Fruiting after removing or diluting LiCl,[8],fruiting bodies develops again
same,Initials and fruiting bodies on mycelium blocks,[9],clear of initials and fruiting bodies
same,Effect on Fruiting body development,[10]; 1.5 g/L LiCl in agar,No
same,Effect on Fruiting body development,"[10]; 1.5 g/L LiCl under agar (concentration calculated with volume of sum of agar and H2O), 8 days",produced only a few initials and stage 1 primordia; also recorded: Retarded
same,Effect on Fruiting body development,[10]; 3 g/L LiCl in agar,absence of fruiting body and No
same,Effect on Fruiting body development,[10]; 3 g/L LiCl under agar (concentration calculated with volume of sum of agar and H2O),No
same,Effect on Fruiting body development,[10]; 6 g/L LiCl in agar,No
same,Effect on Fruiting body development,[10]; 6 g/L LiCl under agar (concentration calculated with volume of sum of agar and H2O),No
same,Fruiting body initiation,"[10]; LiCl concentration higher than 1.5 g/L, in the following 30 days",No initiation was observed
same,"Fruiting body initiation, dose dependence",[10]; LiCl in agar or under agar,inhibited the fruiting body initiation in a dose-dependent manner
[Li] [Lithium],Skin absorption,[11],not absorbed through the skin
O=C([O-])[O-].[Li+].[Li+] [lithium carbonate],Lithium carbonate concentration at which fruiting body cannot form,[12],higher than 0.75 mM
